For test [1], the system named is P. falciparum clone D-6 (Sierra Leone). Type of test: cell-based, Plasmodium falciparum. The conditions noted are these: D-6 clone (resistant to mefloquine). The method, then: (§1) In vitro activity against P. falciparum was determined using a modification of the semiautomated microdilution technique of Desjardins et al. (1979) and Milhous et al. (1985). Two P. falciparum malaria parasite clones, designated as Sierra Leone (D-6) and Indochina (W-2), are used in susceptibility testing. The former is resistant to mefloquine, and the latter to CQ, pyrimethamine, sulfadoxine, and quinine. Test compounds are dissolved in dimethylsulfoxide, and solutions serially diluted with culture media. Erythrocytes with 0.25 to 0.5% parasitemia are added to each well of a 96-well microdilution plate to give a final hematocrit of 1.5%. […] Results are reported as […] (ng/mL) values. For a complete description of this assay, see Milhous et al. (1985) and Lin et al. (1987).

In test [2] the test system is P. falciparum clone W-2 (Indochina). Type of test: cell-based, Plasmodium falciparum. The method, then:
as §1

The next test deals with P. falciparum. Description: In vitro activity against P. falciparum (both clones, D-6 and W-2). As to conditions: for Resistance Index: IC50 (W2)/IC50 (D6) ratio; for IC50: Plasmodium falciparum, clone not specified; for antimalarial activity (in words): general statement, refers to Table I. Type of test: cell-based, Plasmodium falciparum. The method, then:
as §1

The test system of test [3] is P. berghei (strain KBG 173). The experiment in a line: In vivo activity against P. berghei in mice, single subcutaneous dose 3 days after infection. Set-up: species or system Plasmodium berghei; mice. As for the experimental part: In vivo activity against P. berghei was obtained against a drug-sensitive strain of P. berghei (strain KBG 173) (Osdene et al., 1967). Each test compound is administered subcutaneous to five male mice per dilution in a single subcutaneous dose 3 days after infection. Results are expressed in T-C values which indicate the mean survival time of the treated mice beyond that of the control animals; untreated mice survive on average 6.2 days. Compounds are classified as active (A) when the mean survival time of the treated mice is twice that of the controls (>6.2 days), and curative (C) when one or more test animals live 60 days post-infection. Deaths from 0-2 days post-treatment are attributed to toxicity (T).

The mark [4] stands for this setting: 40 mg/kg s.c., single dose 3 days post infection, n = 5.
The mark [5] stands for this setting: 160 mg/kg s.c., single dose 3 days post infection, n = 5.
[6] abbreviates: 640 mg/kg s.c., single dose 3 days post infection, n = 5.

“Also recorded” adds a separate entry of the source.

As for `Clc1ccc2c(N[C@@H]3CCCC[C@H]3Nc3ccnc4cc(Cl)ccc34)ccnc2c1` (relative stereo) [Compound 3, ±-trans-N^1,N^2 -Bis (7-chloroquinolin-4-Yl) cyclohexane-1,2-diamine], the “P. falciparum IC50 (nM) D-6” value in test [1] is recorded as 1.0 nM. Also, the “P. falciparum IC50 (nM) W-2” value in test [2] amounted to 1.4 nM. In the test on P. falciparum, the “in vitro activity against P. falciparum (in words)” value is “most potent bisquinoline in vitro”, the “Resistance Index” value was found to be 1.4, the IC50 was less than 6 nM and the “antimalarial activity (in words)” value is recorded as “exceptional activity”. The “in vivo activity against P. berghei (in words)” value in test [3] is recorded as “either active or curative”. Besides, the “P. berghei T-C” value in test [3] (setting [4]) is given as 8.5 days. Besides, in test [3] (160 mg/kg), the mice cured was 4/5. For the same compound, the mice cured in test [3] (320 mg/kg) is on record as 5/5.
In the case of `CCN(CC)CCCC(C)Nc1ccnc2cc(Cl)ccc12` (centres unmarked) [CQ, chloroquine, reference compound], the “Resistance Index” value in the test on P. falciparum is recorded as 11.2. The “P. berghei T-C” value in test [3] (CQ, 40 mg/kg s.c., average of ten best data sets from WRAIR) was determined as 8.7 days.
Take `CC(CNc1ccnc2cc(Cl)ccc12)Nc1ccnc2cc(Cl)ccc12` (centres unmarked) [Compound 2, N1,N2 -Bis(7-chloroquinolin-4-yl)propane1,2-diamine]: the “P. falciparum IC50 (nM) D-6” value in test [1] was determined as 3.5 nM. Besides, the “P. falciparum IC50 (nM) W-2” value in test [2] is reported as 3.9 nM. For the same compound, in the test on P. falciparum, the “Resistance Index” value amounted to 1.1, the IC50 was less than 6 nM and the “antimalarial activity (in words)” value is “improved activity”. The “in vivo activity against P. berghei (in words)” value in test [3] is listed as “either active or curative”. The “P. berghei T-C” value in test [3] (setting [4]) is reported as 3.4 days. The “P. berghei T-C” value in test [3] (setting [5]) amounted to 5.7 days.
With `Clc1ccc2c(NCCCNc3ccnc4cc(Cl)ccc34)ccnc2c1` [Compound 4, N^1,N^3 -Bis(7-chloroquinolin-4-yl)propane1,3-diamine], the “P. falciparum IC50 (nM) D-6” value in test [1] stood at 15.1 nM. Further, the “P. falciparum IC50 (nM) W-2” value in test [2] turned out to be 82.9 nM. Also, in the test with P. falciparum, the “in vitro activity against P. falciparum (in words)” value is “approximately an order of magnitude less potent in vitro; also recorded: inactive in both screens”. Also, the “Resistance Index” value with P. falciparum is on record as 5.5. In addition, the “in vivo activity against P. berghei (in words)” value in test [3] is “without activity in vivo; also recorded: inactive in both screens”. Further, the figures for the “P. berghei T-C” value in test [3] (setting [4]), in test [3] (setting [5]) and in test [3] (setting [6]) were 0.2 days, 0.4 days and 1.2 days, respectively.
`Clc1ccc2c(NCCCCNc3ccnc4cc(Cl)ccc34)ccnc2c1` [Compound 5, N1,N4 -Bis(7-chloroquinolin-4-yl)butane-1,4-diamine]: the “P. falciparum IC50 (nM) D-6” value in test [1] is 387 nM. Further, in test [2], the “P. falciparum IC50 (nM) W-2” value is on record as 80.9 nM. In addition, in the test on P. falciparum, the “in vitro activity against P. falciparum (in words)” value was “approximately an order of magnitude less potent in vitro; also recorded: inactive in both screens”. For the same compound, the “Resistance Index” value in the test with P. falciparum is reported as 0.2. In addition, the “in vivo activity against P. berghei (in words)” value in test [3] was “without activity in vivo; also recorded: inactive in both screens”. The figures for the “P. berghei T-C” value in test [3] (setting [4]), in test [3] (setting [5]) and in test [3] (setting [6]) were 0.5 days, 2.3 days and 5.6 days, respectively.
Take `Clc1ccc2c(NCCCCCNc3ccnc4cc(Cl)ccc34)ccnc2c1` [Compound 6, N^1, N^5 -Bis(7-chloroquinolin-4-yl)pentane-1,5-diamine]: the “P. falciparum IC50 (nM) D-6” value in test [1] came to 2.5 nM. In addition, the “P. falciparum IC50 (nM) W-2” value in test [2] was determined as 3.8 nM. Further, in the test with P. falciparum, the “Resistance Index” value is 1.5 and the IC50 was less than 6 nM. In addition, the “in vivo activity against P. berghei (in words)” value in test [3] was “either active or curative”. In addition, in test [3] (setting [4]), the “P. berghei T-C” value turned out to be 1.0 days. The “P. berghei T-C” value in test [3] (setting [5]) was found to be 5.1 days.
For `CC(CCCNc1ccnc2cc(Cl)ccc12)CNc1ccnc2cc(Cl)ccc12` (centres unmarked) [Compound 7, N^1, N^5 -Bis(7-chloroquinolin-4-yl)-2-methylpentane-1,5-diamine], the “P. falciparum IC50 (nM) D-6” value in test [1] is recorded as 2.7 nM. Also, the “P. falciparum IC50 (nM) W-2” value in test [2] is on record as 3.0 nM. In the test on P. falciparum, the “Resistance Index” value was determined as 1.1, the IC50 is less than 6 nM and the “antimalarial activity (in words)” value was “improved activity”. Moreover, in test [3], the “in vivo activity against P. berghei (in words)” value is listed as “either active or curative”. The “P. berghei T-C” value in test [3] (setting [4]) came to 1.2 days. Further, the “P. berghei T-C” value in test [3] (setting [5]) is recorded as 3.6 days.
For the compound `Clc1ccc2c(NCCCCCCNc3ccnc4cc(Cl)ccc34)ccnc2c1` [Compound 8, N^1, N^6 -Bis(7-chloroquinolin-4-yl)hexane-1,6-diamine], the “P. falciparum IC50 (nM) D-6” value in test [1] is listed as 21.1 nM. Moreover, the “P. falciparum IC50 (nM) W-2” value in test [2] was found to be 23.4 nM. Besides, the “Resistance Index” value in the test with P. falciparum is recorded as 1.1. The “P. berghei T-C” value in test [3] (setting [4]) amounted to 0.4 days; in test [3] (setting [5]), 3.9 days.
Turning to `Clc1ccc2c(NCCCCCCCNc3ccnc4cc(Cl)ccc34)ccnc2c1` [Compound 9, N^1, N^7 -Bis(7-chloroquinolin-4-Yl)heptane-1,7-diamine], the “P. falciparum IC50 (nM) D-6” value in test [1] was 1.9 nM. Also, the “P. falciparum IC50 (nM) W-2” value in test [2] came to 4.3 nM. In addition, in the test with P. falciparum, the “Resistance Index” value worked out at 2.3. The same compound came in with an IC50 with P. falciparum of less than 6 nM. For the same compound, the “P. berghei T-C” value in test [3] (setting [4]) is on record as 2.6 days; in test [3] (setting [5]), 7.2 days.
For the compound `Clc1ccc2c(NCCCCCCCCNc3ccnc4cc(Cl)ccc34)ccnc2c1` [Compound 10, N^1, N^8 -Bis(7-chloroquinolin-4-yl)octane-1,8diamine], in test [1], the “P. falciparum IC50 (nM) D-6” value was 5.6 nM. For the same compound, the “P. falciparum IC50 (nM) W-2” value in test [2] was 3.1 nM. Moreover, in the test with P. falciparum, the “Resistance Index” value was found to be 0.6 and the IC50 was less than 6 nM. Further, the “P. berghei T-C” value in test [3] (setting [4]) is -0.2 days. Further, in test [3] (setting [5]), the “P. berghei T-C” value was determined as 1.0 days.
Consider `Clc1ccc2c(NCCCCCCCCCNc3ccnc4cc(Cl)ccc34)ccnc2c1` [Compound 11, N^1, N^9 -Bis(7-chloroquinolin-4-yl)nonane-1,9-diamine], for which the “P. falciparum IC50 (nM) D-6” value in test [1] was found to be 3.0 nM. The “P. falciparum IC50 (nM) W-2” value in test [2] is reported as 2.3 nM. Further, in the test on P. falciparum, the “Resistance Index” value is on record as 0.8 and the IC50 was less than 6 nM. The “P. berghei T-C” value in test [3] (setting [4]) is 3.1 days. For the same compound, in test [3] (setting [5]), the “P. berghei T-C” value is 7.4 days. In test [3] (640 mg/kg s.c., single dose, n = 5), the “P. berghei activity class (A = active, C = curative, with number of mice)” value is reported as “A (active (A) when the mean survival time of the treated mice is twice that of the controls (>6.2 days))”.
For `Clc1ccc2c(NCCCCCCCCCCNc3ccnc4cc(Cl)ccc34)ccnc2c1` [Compound 12, N^1, N^10 -Bis(7-chloroquinolin-4-yl)decane-l,10-diamine], the “P. falciparum IC50 (nM) D-6” value in test [1] was 5.7 nM. The “P. falciparum IC50 (nM) W-2” value in test [2] was 3.4 nM. For the same compound, the “Resistance Index” value with P. falciparum worked out at 0.6. For the same compound, the figures for the “P. berghei T-C” value in test [3] (setting [4]), in test [3] (setting [5]) and in test [3] (setting [6]) were 0.2 days, 0.2 days and 0.6 days, respectively.
For `Clc1ccc2c(NCCCCCCCCCCCCNc3ccnc4cc(Cl)ccc34)ccnc2c1` [Compound 13, N^1 N^12 -Bis(7-chloroquinolin-4-yl)dodecane-1,12-diamine], the “P. falciparum IC50 (nM) D-6” value in test [1] was 59.7 nM. Moreover, the “P. falciparum IC50 (nM) W-2” value in test [2] was 30.8 nM. Further, the “in vitro activity against P. falciparum (in words)” value in the test with P. falciparum is “approximately an order of magnitude less potent in vitro; also recorded: inactive in both screens”. Moreover, the “Resistance Index” value in the test on P. falciparum was found to be 0.5. Also, the “in vivo activity against P. berghei (in words)” value in test [3] was “without activity in vivo; also recorded: inactive in both screens”. In addition, the “P. berghei T-C” value is 0.0 days in test [3] (setting [4]), -0.2 days in test [3] (setting [5]) and 0.0 days in test [3] (setting [6]).

(Values after patent US5510356A, “Bisquinolines and processes for their production and use to treat malaria” (priority 1991, dated 1996).)
